Assay: method code SF, from DOI: 10.1016/0378-5173(89)90136-1

Compound `O=C(NCc1ccccc1O)c1ccccc1` has a logP of 2.55.
Work on `O=C(OCCO)c1ccccc1` yielded a logP of 1.12.
Compound `O=C(OCCNC(=O)C(F)(F)F)c1ccccc1` has a logP of 2.25.
With `CCNC(=O)CNC(=O)c1ccccc1` the logP was 0.58.
`O=[N+]([O-])c1ccc(OCCN2CCOCC2)cc1` gave a logP of 1.54.
`O=C(OCCOCCOCCO)c1ccccc1` gave a logP of 1.09.
`CCNC(=O)[C@@H](NC(=O)CNC(=O)c1ccccc1)C(C)C` showed a logP of 1.05.
Work on `COCCOC(=O)c1ccccc1` yielded a logP of 1.78.
`CCCCCCNC(=S)NC` gave a logP of 2.31.
Work on `O=C(OC1C2C=CC1C=C2)c1ccccc1` (stereo not given) yielded a logP of 3.03.
